# Where “and” joins values, the source holds several entries; their conditions need not be identical. Equal values may be shown once. Where a name gives a salt, the structure may show the parent alone.
# Target: T1, HO-1 (Rattus norvegicus, UniProt P06762)
# T1 construct: Rat spleen microsomal fractions were chosen to isolate HO-1 in its most native form; from tissue; host or cells: rat spleen (male Sprague-Dawley), 100,000 g microsomal pellet
# T1 sequence (P06762 1-289): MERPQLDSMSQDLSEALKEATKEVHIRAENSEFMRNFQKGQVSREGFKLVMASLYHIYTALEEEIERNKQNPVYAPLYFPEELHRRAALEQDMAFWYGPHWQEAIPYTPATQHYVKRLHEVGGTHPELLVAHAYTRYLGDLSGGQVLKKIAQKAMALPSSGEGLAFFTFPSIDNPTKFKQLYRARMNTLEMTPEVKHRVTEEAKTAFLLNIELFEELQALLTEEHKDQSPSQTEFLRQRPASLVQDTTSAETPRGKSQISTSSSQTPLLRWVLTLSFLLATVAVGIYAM
# Assay: HO-1 enzymatic activity in the microsomal fraction of rat spleen (bilirubin formation)
# Format: biochemical
# Settings: rat spleen microsomal fraction; mean ± SD of triplicate experiments
# Procedure: The inhibitory potency of the novel compounds was evaluated reproducing in vitro the HO-1 catalytic cycle. Rat spleen microsomal fractions were chosen to isolate HO-1 in its most native form; indeed, it is well known that in basal conditions, HO-1 is highly expressed in spleen tissues. […] Among the three catabolites, bilirubin concentrations can easily be monitored spectrophotometrically; the lowest is the absorbance detected with the assay, and the highest is the potency of the putative inhibitor. Results obtained from the in vitro enzymatic assay are reported in Table 1, using Azalanstat as the reference compound.
# Rat spleen microsomal fraction obtained by differential centrifugation, according to Ryter et al., was used as source of the HO-1 protein. As reported in the literature, HO-1 is abundant in the rat spleen. We chose this source because it represents the most native (i.e., closest to in vivo) form of HO-1. The experiments reported in the present paper complied with current Italian law and met the guidelines of the Institutional Animal Care and Use Committee of the Ministry of Health (Directorate-General for Animal Health and Veterinary Medicines, Italy) “Dosing of enzymatic activities in rat microsomes” (2018–2022), project code 02769.N.VLY. We used male albino rats of strain Sprague–Dawley (150 g body weight and age 45 d) to obtain spleen microsomal fraction. Rats had free access to water and were kept at room temperature with a natural photoperiod (12 h light–12 h dark cycle). Each rat was sacrificed, and their spleens were pooled and then homogenized in 50 mM Tris buffer, pH 7.4, containing 0.25 M sucrose, using a Potter–Elvehjem homogenizing system with a Teflon pestle. Rat spleen homogenate was centrifuged at 10,000× g for 20 min at 4 °C, and the supernatant was centrifuged at 100,000× g for 60 min at 4 °C. The 100,000 g pellet (microsomes) was resuspended in 100 mM potassium phosphate buffer, pH 7.8, containing MgCl2 2 mM. After measuring its protein concentration, the microsomal fraction was aliquoted and stored at −80 °C for up to 2 months.
# Liver tissue was used to obtain biliverdin reductase. Liver tissue was homogenized on ice in 3 volumes of a solution 1.15% KCl w/v and Tris buffer 20 mM, pH 7.8. Rat liver homogenate was centrifuged at 10,000× g for 20 min at 4 °C, and the supernatant was centrifuged at 100,000× g for 1 h at 4 °C. The 100,000 g supernatant was aliquoted and stored at −80 °C after its protein concentration was measured.
# Determination of HO-1 activity has been performed by measuring the bilirubin formation using the difference in absorbance at 464–530 nm as described by Ryter et al.. The incubation mixture contained the following in a final volume of 500 µL: 20 mM Tris–HCl, pH 7.4, (1 mg/mL) microsomal extract, 0.5–2 mg/mL biliverdin reductase, 1 mM NADPH, 2 mM glucose 6-phosphate (G6P), 1 U G6P dehydrogenase, 25 µM hemin, and 10 µL of DMSO (or the same volume of DMSO solution of test compounds to a final concentration of 100, 10, and 1 µM). Enzymatic reactions were carried out in the dark for 1 h at 37 °C in a circulating water bath. Then, 500 µL of chloroform was used to stop the reaction. The amount of bilirubin formed was measured in the chloroform phase, with a double-beam spectrophotometer as OD464–530 nm (extinction coefficient, 40 mM/cm for bilirubin). The enzymatic activity was defined as Units (one Unit is the amount of enzyme catalyzing the formation of 1 nmol of bilirubin/mg protein/h).
IC50,HO-1 IC50,SMILES
89.6 ± 6.1 µM,,"O=C(NCCCn1ccnc1)c1cc2cc(OCc3ccccc3)ccc2[nH]1 [Compound 1, N-(3-(1H-Imidazol-1-yl)propyl)-5-(benzyloxy)-1H-indole-2-carboxamide]"
1.03 ± 0.13 µM,low micromolar range,"Cn1c(C(=O)NCCCn2ccnc2)cc2cc(OCc3ccccc3)ccc21 [Compound 4d, N-(3-(1H-Imidazol-1-yl)propyl)-5-(benzyloxy)-1-methyl-1H-indole-2-carboxamide]"
55.5 ± 3.82 µM,,"COc1cc2cc(C(=O)NCCCn3ccnc3)n(C)c2cc1OC [Compound 4c, N-(3-(1H-Imidazol-1-yl)propyl)-5,6-dimethoxy-1-methyl-1H-indole-2-carboxamide]"
367 ± 34.5 µM,,"Cc1ccc2c(c1)cc(C(=O)NCCCn1ccnc1)n2C [Compound 4a, N-(3-(1H-Imidazol-1-yl)propyl)-1,5-dimethyl-1H-indole-2-carboxamide]"
> 100 µM and 113 µM,,"COc1ccc2c(c1)cc(C(=O)NCCCn1ccnc1)n2C [Compound 4b, N-(3-(1H-Imidazol-1-yl)propyl)-5-methoxy-1-methyl-1H-indole-2-carboxamide]"

SMILES,IC50,HO-1 IC50
"COc1cc2cc(C(=O)NCCCn3ccnc3)n(Cc3ccccc3)c2cc1OC [Compound 8c, N-(3-(1H-Imidazol-1-yl)propyl)-1-benzyl-5,6-dimethoxy-1H-indole-2-carboxamide]",81 ± 4.65 µM,
"COc1ccc2c(c1)cc(C(=O)NCCCn1ccnc1)n2Cc1ccccc1 [Compound 8b, N-(3-(1H-Imidazol-1-yl)propyl)-1-benzyl-5-methoxy-1H-indole-2-carboxamide]",> 100 µM and 349 µM,
"Cc1ccc2c(c1)cc(C(=O)NCCCn1ccnc1)n2Cc1ccccc1 [Compound 8a, N-(3-(1H-Imidazol-1-yl)propyl)-1-benzyl-5-methyl-1H-indole-2-carboxamide]",2060 ± 412 µM,

# Same assay, conditions: versus compound 1
row,fold more potent than parent compound 1 (HO-1 IC50) [fold],SMILES
1,87,"Cn1c(C(=O)NCCCn2ccnc2)cc2cc(OCc3ccccc3)ccc21 [Compound 4d, N-(3-(1H-Imidazol-1-yl)propyl)-5-(benzyloxy)-1-methyl-1H-indole-2-carboxamide]"

# Tested on: HO-2
# Assay: not given
# Settings: representative inhibitor, printed in picture of Figure 1; cited from earlier work
row,SMILES,IC50 [µM]
1,FC(F)(F)c1ccc(SC[C@@H]2CO[C@@](CCc3ccc(Cl)cc3)(Cn3ccnc3)O2)nc1 [QC-80],16

# Tested on: not given
# Assay: not given
# Settings: not given
row,melting point [°C],SMILES
1,102 to 103,"Cc1ccc2c(c1)cc(C(=O)NCCCn1ccnc1)n2C (as salt: hydrochloride) [Compound 4a, N-(3-(1H-Imidazol-1-yl)propyl)-1,5-dimethyl-1H-indole-2-carboxamide]"
2,204 to 206,"O=C(NCCCn1ccnc1)c1cc2cc(OCc3ccccc3)ccc2[nH]1 [Compound 1, N-(3-(1H-Imidazol-1-yl)propyl)-5-(benzyloxy)-1H-indole-2-carboxamide]"
3,121 to 122,"COc1ccc2c(c1)cc(C(=O)NCCCn1ccnc1)n2C (as salt: hydrochloride) [Compound 4b, N-(3-(1H-Imidazol-1-yl)propyl)-5-methoxy-1-methyl-1H-indole-2-carboxamide]"
4,174 to 175,"Cn1c(C(=O)NCCCn2ccnc2)cc2cc(OCc3ccccc3)ccc21 (as salt: hydrochloride) [Compound 4d, N-(3-(1H-Imidazol-1-yl)propyl)-5-(benzyloxy)-1-methyl-1H-indole-2-carboxamide]"
5,146 to 147,"COc1cc2cc(C(=O)NCCCn3ccnc3)n(C)c2cc1OC (as salt: hydrochloride) [Compound 4c, N-(3-(1H-Imidazol-1-yl)propyl)-5,6-dimethoxy-1-methyl-1H-indole-2-carboxamide]"

row,SMILES,melting point [°C]
1,"COc1ccc2c(c1)cc(C(=O)NCCCn1ccnc1)n2Cc1ccccc1 (as salt: hydrochloride) [Compound 8b, N-(3-(1H-Imidazol-1-yl)propyl)-1-benzyl-5-methoxy-1H-indole-2-carboxamide]",151 to 152
2,"Cc1ccc2c(c1)cc(C(=O)NCCCn1ccnc1)n2Cc1ccccc1 (as salt: hydrochloride) [Compound 8a, N-(3-(1H-Imidazol-1-yl)propyl)-1-benzyl-5-methyl-1H-indole-2-carboxamide]",178 to 179
3,"COc1cc2cc(C(=O)NCCCn3ccnc3)n(Cc3ccccc3)c2cc1OC (as salt: hydrochloride) [Compound 8c, N-(3-(1H-Imidazol-1-yl)propyl)-1-benzyl-5,6-dimethoxy-1H-indole-2-carboxamide]",110 to 111

# Tested on: HO-1
# Assay: not given
# Settings: representative inhibitor, printed in picture of Figure 1; cited from earlier work
row,SMILES,IC50 [µM]
1,FC(F)(F)c1ccc(SC[C@@H]2CO[C@@](CCc3ccc(Cl)cc3)(Cn3ccnc3)O2)nc1 [QC-80],2.1
